From publication PMC10308769, “First reported double drug–drug interaction in a cancer renal patient under everolimus treatment: therapeutic drug monitoring and review of literature” (European Journal of Medical Research, 2023)
Entries after “also recorded” stand apart in the source; their conditions may differ. Like-named read-outs stand apart in the source and are kept apart here.

How the values were obtained:
[1] = system: renal cell carcinoma (RCC); experiment: Clinical course of the case patient: toxicities, response, PFS; format: in vivo
Procedure: A person with smoking and epilepsy history was diagnosed from a stage pT3a renal carcinoma in December 2015. Radical right nephrectomy was performed in February 2016. In September 2018, a right lung segmentectomy was practiced due to lepidic adenocarcinoma growth. On February 2021 progression was detected with right adrenal massive bleeding, hilar adenopathy and left renal adrenal metastasis. Nivolumab was initiated as first-line treatment in May 2021 for intermediate-risk clear-cell RCC. […] In December 2021, new progression was detected and second-line treatment with cabozantinib 60 mg daily was started.
(§1) This finding was discussed within the multidisciplinary team, including the oncologist and the pharmacist, and a TDM plan was planned. Method used for analysis was ultra-high-performance liquid chromatography coupled to tandem mass spectrometry.
Everolimus dose was increased from 10 mg QD to 15 mg daily (administered 10 mg, 1 h before breakfast and 5 mg, 1 h before dinner). […] However, a second dose adjustment was needed, 10 mg BID, administered before meals. Two weeks and a month later, new TDM were planned and Cminss were 10.6 ng/ml and 8.7 ng/ml, respectively (Fig. 2). […] Unfortunately, everolimus treatment was stopped on July 2022, due to lung progression, pleural effusion, and respiratory insufficiency, and finally patient died.

[2] = Therapeutic drug monitoring of everolimus in the case patient (UHPLC-MS/MS); format: in vivo; conditions: human, plasma, oral, co-medication carbamazepine and phenytoin, read-out: Cminss
Text: as §1

[3] = design: method as in earlier work; conditions: single oral 10 mg dose, cited from earlier work
[4] = design: method as in product label; conditions: ref product label, cited from earlier work
[5] = design: method as in PMID 24332451; conditions: cited from earlier work
breast cancer = system: breast cancer; design: method as in PMID 36188563; conditions: cited from earlier work
[6] = design: method as in PMID 16187976; conditions: single 2 mg dose everolimus with verapamil 80 mg three times daily, 16 healthy subjects; cited from earlier work
[7] = design: method as in PMID 15785960; conditions: single 2-mg dose everolimus with erythromycin 500 mg TID for 9 days; cited from earlier work
[8] = design: method as in PMID 25361989; conditions: cited from earlier work
[9] = design: method as in PMID 28762135; conditions: 10 patients, cited from earlier work
renal cancer [10] = system: renal cancer; design: method as in PMID 27279544; conditions: renal cancer patients, second or third-line therapy; cited from earlier work
renal cancer [11] = system: renal cancer; design: method as in PMID 22209391; conditions: cited from earlier work
CYP3A4 = system: CYP3A4; design: method as in lexicomp and drugs databases; conditions: ref lexicomp and drugs databases; cited from earlier work

With Nivolumab as the molecule, how does the adverse events ([1]; nivolumab first-line treatment, case patient) read?
Its adverse events is “dry mouth, grade II anorexia and grade I astheny; also recorded: no immune-mediated toxicities”.

Which results are given for `CO[C@H]1C[C@@H]2CC[C@@H](C)[C@@](O)(O2)C(=O)C(=O)N2CCCC[C@H]2C(=O)O[C@H]([C@H](C)C[C@@H]2CC[C@@H](OCCO)[C@H](OC)C2)CC(=O)[C@H](C)/C=C(\C)[C@@H](O)[C@@H](OC)C(=O)[C@H](C)C[C@H](C)/C=C/C=C/C=C/1C` [everolimus]?
concentration at 1 month ([2]; 10 mg BID, everolimus 10 mg BID, a month later): 8.7 ng/mL; concentration at 2 weeks ([2]; 10 mg BID, everolimus 10 mg BID, two weeks later): 10.6 ng/mL; concentration at 4 weeks ([2]; 10 mg QD, everolimus 10 mg QD fasted, four weeks after starting treatment): 3.7 ng/mL; concentration at 4 weeks ([2]; 15 mg daily (10 mg + 5 mg), everolimus 15 mg daily (10 mg + 5 mg), four weeks later): 6.4 ng/mL; PFS ([1]; case patient, everolimus third line RCC): 3.7 months; toxicities ([1]; during everolimus treatment): no relevant toxicities were observed; response to treatment ([1]; during everolimus treatment, third line RCC): stable disease; also recorded: stabilization disease; toxicities ([1]; everolimus 10 mg QD, four weeks after starting treatment): no toxicities; toxicities ([1]; everolimus 15 mg daily, four weeks later): without relevant toxicities; reduction of AUC ([3]; high-fat meal vs fasting): 33%; reduction of Cmax ([3]; high-fat meal vs fasting): 54%; reduction of AUC ([3]; low-fat meal vs fasting): 22%; reduction of Cmax ([3]; low-fat meal vs fasting): 42%; time to peak concentration ([4]; oral): 1.3 to 1.8 h; time to steady state [4]: 7 to 14 days; mean Cminss ([5]; 945 patients, lung, renal and neuroendocrine tumors): 15.65 ng/mL; patients achieving optimal plasmatic concentrations (10-30 ng/ml) ([5]; lung cancer): 55.2%; patients achieving optimal plasmatic concentrations (10-30 ng/ml) ([5]; neuroendocrine tumors): 45%; patients achieving optimal plasmatic concentrations (10-30 ng/ml) ([5]; renal cancer): 62.9%; decrease of Cminss ([5]; with CYP3A4 inducers): 7%; increase of Cminss ([5]; with strong CYP3A4 inhibitors): 10%; median PFS (breast cancer; breast cancer patients): 13.7 months; median Cminss in patients with dose-limiting toxicities (breast cancer): 19 ng/mL; patients with Cminss below 10 ng/ml (breast cancer): 50%; increase of AUC [6]: 3.5 fold; increase of Cmax [6]: 2.3 fold; increase of AUC [7]: 4.4 fold; increase of Cmax [7]: 2.0 fold; plasma concentration ([8]; before fenofibrate): 10.1 ng/mL; plasma concentration ([8]; with fenofibrate): 4.2 ng/mL; AUC ([9]; 5 mg twice daily): 436 ng·h/mL; maximum concentration (Cmax) ([9]; 5 mg twice daily): 40.3 ng/mL; minimum steady-state concentration (Cminss) ([9]; 5 mg twice daily): 13.7 ng/mL; AUC ([9]; 10 mg once daily): 435 ng·h/mL; maximum concentration (Cmax) ([9]; 10 mg once daily): 61.5 ng/mL; minimum steady-state concentration (Cminss) ([9]; 10 mg once daily): 9.6 ng/mL; median PFS (renal cancer [10]): 3.8 months; median PFS (renal cancer [11]; renal cancer patients, comparison group before the drop (earlier line)): 5.4 months; median PFS (renal cancer [11]; third line, previously treated with two anti-VEGFR tyrosine kinase inhibitor): 4 months

With `NC(=O)N1c2ccccc2C=Cc2ccccc21` [carbamazepine] as the molecule, how does the “classification of effect on CYP3A4 metabolism” value (CYP3A4) read?
Its value is “strong inducers”.

With `O=C1NC(=O)C(c2ccccc2)(c2ccccc2)N1` [phenytoin] as the molecule, how does the “classification of effect on CYP3A4 metabolism” value (CYP3A4) read?
Its value is “strong inducers”.

With `COc1cc2nccc(Oc3ccc(NC(=O)C4(C(=O)Nc5ccc(F)cc5)CC4)cc3)c2cc1OC` [cabozantinib] as the molecule, how does the adverse events ([1]; cabozantinib 60 mg daily second-line treatment, case patient) read?
Its adverse events is “hypertension grade I; also recorded: nausea and diarrhea grade I”.
